Assay results reported in PMC8480901 (PLoS ONE, 2021).
Where “and” joins values, the source holds several entries; their conditions need not be identical. Equal entries are not always repeated.

Tested on: J774.2 mouse macrophages
Assay: LPS-induced cytokine and chemokine levels in J774.2 mouse macrophage cell supernatant (ELISA)
Format: cell-based
Conditions: for CXCL1 % reduction / CXCL1 [pg/mL] Mean / CXCL2 % reduction / CXCL2 [pg/mL] Mean / MMP9 % reduction / MMP9 [pg/mL] Mean: J774.2 cells; for CXCL1 % reduction / CXCL1 [pg/mL] Mean / CXCL2 % reduction / CXCL2 [pg/mL] Mean / MMP9 % reduction / MMP9 [pg/mL] Mean / CCl2, % reduction / CCl2, Mean / GM-CSF % reduction / GM-CSF Mean / IL-1β % reduction / IL-1β Mean / IL-6 % reduction / IL-6 Mean / TNF-α % reduction / TNF-α Mean / CCl2 / CXCL1 / GM-CSF / IL-1β / IL-6 / TNF-α: LPS; for CCl2, % reduction / CCl2, Mean / GM-CSF % reduction / GM-CSF Mean / IL-1β % reduction / IL-1β Mean / IL-6 % reduction / IL-6 Mean / TNF-α % reduction / TNF-α Mean / CCl2 / CXCL1 / GM-CSF / IL-1β / IL-6 / TNF-α: J774.2 supernatant; for CCl2 / CXCL1 / GM-CSF / IL-1β / IL-6 / TNF-α: individual replicate

C=C[C@]1(C)C[C@@H](OC(=O)CS[C@@H]2CC[C@@H](N)C[C@H]2O)[C@]2(C)[C@H](C)CC[C@]3(CCC(=O)[C@H]32)[C@@H](C)[C@@H]1O [Lefamulin]
CXCL1 % reduction (compound 0.03 µM): -4.29%
CXCL1 [pg/mL] Mean (compound 0.03 µM): 27 pg/mL
CXCL2 % reduction (compound 0.03 µM): 3%
CXCL2 [pg/mL] Mean (compound 0.03 µM): 31653 pg/mL
MMP9 % reduction (compound 0.03 µM): 2.7%
MMP9 [pg/mL] Mean (compound 0.03 µM): 939 pg/mL
CXCL1 % reduction (compound 0.1 µM): 0.477%
CXCL1 [pg/mL] Mean (compound 0.1 µM): 25 pg/mL
CXCL2 % reduction (compound 0.1 µM): 7%
CXCL2 [pg/mL] Mean (compound 0.1 µM): 30382 pg/mL
MMP9 % reduction (compound 0.1 µM): 16%
MMP9 [pg/mL] Mean (compound 0.1 µM): 819 pg/mL
CXCL1 % reduction (compound 0.3 µM): -4.29%
CXCL1 [pg/mL] Mean (compound 0.3 µM): 27 pg/mL
CXCL2 % reduction (compound 0.3 µM): 0.626%
CXCL2 [pg/mL] Mean (compound 0.3 µM): 32419 pg/mL
MMP9 % reduction (compound 0.3 µM): 14%
MMP9 [pg/mL] Mean (compound 0.3 µM): 840 pg/mL
CXCL1 % reduction (compound 1 µM): -0.703%
CXCL1 [pg/mL] Mean (compound 1 µM): 26 pg/mL
CXCL2 % reduction (compound 1 µM): -10%
CXCL2 [pg/mL] Mean (compound 1 µM): 35898 pg/mL
MMP9 % reduction (compound 1 µM): 2.38%
MMP9 [pg/mL] Mean (compound 1 µM): 942 pg/mL
CXCL1 % reduction (compound 3 µM): -7.61%
CXCL1 [pg/mL] Mean (compound 3 µM): 28 pg/mL
CXCL2 % reduction (compound 3 µM): -7%
CXCL2 [pg/mL] Mean (compound 3 µM): 34917 pg/mL
MMP9 % reduction (compound 3 µM): 7%
MMP9 [pg/mL] Mean (compound 3 µM): 900 pg/mL
CXCL1 % reduction (compound 10 µM): -36%
CXCL1 [pg/mL] Mean (compound 10 µM): 35 pg/mL
CXCL2 % reduction (compound 10 µM): -7%
CXCL2 [pg/mL] Mean (compound 10 µM): 34821 pg/mL
MMP9 % reduction (compound 10 µM): 14%
MMP9 [pg/mL] Mean (compound 10 µM): 838 pg/mL
CXCL1 % reduction (compound 30 µM): -238%
CXCL1 [pg/mL] Mean (compound 30 µM): 87 pg/mL
CXCL2 % reduction (compound 30 µM): -16%
CXCL2 [pg/mL] Mean (compound 30 µM): 37862 pg/mL
MMP9 % reduction (compound 30 µM): 60%
MMP9 [pg/mL] Mean (compound 30 µM): 423 pg/mL
CXCL1 % reduction (compound 100 µM): -827%
CXCL1 [pg/mL] Mean (compound 100 µM): 237 pg/mL
CXCL2 % reduction (compound 100 µM): -16%
CXCL2 [pg/mL] Mean (compound 100 µM): 37744 pg/mL
MMP9 % reduction (compound 100 µM): 96%
MMP9 [pg/mL] Mean (compound 100 µM): 91 pg/mL
IL-6 and IL-1β levels in supernatant (J774.2 macrophages): trend toward reduction
levels of the measured LPS-induced cytokines, chemokines, or MMP-9 in supernatants (J774.2 mouse macrophages, concentrations tested (0.03 to 10 μM shown)): little to no reduction
CCl2, % reduction (0.03 µM): 1.79%
CCl2, Mean (0.03 µM): 35400 pg/mL
GM-CSF % reduction (0.03 µM): 52%
GM-CSF Mean (0.03 µM): 672 pg/mL
IL-1β % reduction (0.03 µM): -26%
IL-1β Mean (0.03 µM): 241 pg/mL
IL-6 % reduction (0.03 µM): -14%
IL-6 Mean (0.03 µM): 88112 pg/mL
TNF-α % reduction (0.03 µM): -16%
TNF-α Mean (0.03 µM): 1587 pg/mL
CCl2 (0.03 µM): 33453 pg/mL and 37346.9 pg/mL
CXCL1 (0.03 µM): 25.7 pg/mL and 27.7 pg/mL
GM-CSF (0.03 µM): 625.6 pg/mL and 719.3 pg/mL
IL-1β (0.03 µM): 233.691 pg/mL and 247.723 pg/mL
IL-6 (0.03 µM): 83483 pg/mL and 92741 pg/mL
TNF-α (0.03 µM): 1586.9 pg/mL and 1587.5 pg/mL
CCl2, % reduction (0.1 µM): 8%
CCl2, Mean (0.1 µM): 33260 pg/mL
GM-CSF % reduction (0.1 µM): 50%
GM-CSF Mean (0.1 µM): 691 pg/mL
IL-1β % reduction (0.1 µM): -10%
IL-1β Mean (0.1 µM): 209 pg/mL
IL-6 % reduction (0.1 µM): -11%
IL-6 Mean (0.1 µM): 85917 pg/mL
TNF-α % reduction (0.1 µM): -16%
TNF-α Mean (0.1 µM): 1579 pg/mL
CCl2 (0.1 µM): 30882.1 pg/mL and 35637.1 pg/mL
CXCL1 (0.1 µM): 26.3 pg/mL and 24.7 pg/mL
GM-CSF (0.1 µM): 718.9 pg/mL and 663.8 pg/mL
IL-1β (0.1 µM): 208.032 pg/mL and 210.141 pg/mL
IL-6 (0.1 µM): 86925 pg/mL and 84909 pg/mL
TNF-α (0.1 µM): 1571.9 pg/mL and 1586.9 pg/mL
CCl2, % reduction (0.3 µM): 0.431%
CCl2, Mean (0.3 µM): 35870 pg/mL
GM-CSF % reduction (0.3 µM): 54%
GM-CSF Mean (0.3 µM): 647 pg/mL
IL-1β % reduction (0.3 µM): -6%
IL-1β Mean (0.3 µM): 202 pg/mL
IL-6 % reduction (0.3 µM): -13%
IL-6 Mean (0.3 µM): 87246 pg/mL
TNF-α % reduction (0.3 µM): -8.54%
TNF-α Mean (0.3 µM): 1483 pg/mL
CCl2 (0.3 µM): 32973.5 pg/mL and 38766.3 pg/mL
CXCL1 (0.3 µM): 24.9 pg/mL and 28.5 pg/mL
GM-CSF (0.3 µM): 644.4 pg/mL and 648.8 pg/mL
IL-1β (0.3 µM): 202.166 pg/mL and 201.189 pg/mL
IL-6 (0.3 µM): 86199 pg/mL and 88294 pg/mL
